# Experimental data: patent US10309956B2, “Process for assessing risk of substance administration” (priority 2014, dated 2019)
# What was measured:
# Type in all cases: cell-based, human
# [1] = system: PBMCs and NK cells; experiment: Perforin levels in TPP-treated total PBMCs and NK cells; details: PBMC populations or NK cells
# Procedure: (§2) Cells were washed after 3 h treatment and re-plated in a 48-well plate at 1 million cells/well/mL with and without the presence of 10 μg/mL polyinosinic:polycytidylic acid (poly I:C) or lipopolysaccharide (LPS). After a 67 h incubation, supernatants were taken for secreted cytokine analysis. Cells were plated onto a 96-well plate at 1×10^6/mL and further incubated for 4 h with 200 μL of media with Golgiplug (1 μg/mL) (BD Biosciences, San Jose, Calif.) to measure intracellular cytokines. Cells were then harvested, washed and surface stained for CD56-PE and CD2-FITC, CD69-APC monoclonal antibodies (mAB) for 30 min at 4° C. After washing, cells were fixed and permeabilized with BD Biosciences Cytofix/Cytoperm buffer for 20 min on ice in the dark. Cells were then stained with anti-IFN-γ-PE, anti-TNF-α-APC and anti-perforin-FITC mAB and incubated for an additional 30 min on ice. After washing the cells, they were re-suspended in a total volume of 200 μL of 2% paraformaldehyde for FACS analysis. Forward scatter, side scatter, fluorescence intensity and percent positivity were measured after acquiring 100,000 cells per sample by flow cytometry (BD Biosciences, San Jose, Calif.), and the data were analyzed using Cell Quest (BD Biosciences, San Jose, Calif.) and Flow Jo (Tree Star, Ashland, Oreg.) software.
# [2] = system: NK cells; experiment: TNF-α+ NK cells in poly I:C- and LPS-stimulated PBMCs treated with TPPs
# Procedure: as §2
# [3] = system: T cells; experiment: Intracellular TNF-α and IFN-γ positive T cells in TPP-treated PBMCs stimulated with poly I:C or LPS (flow cytometry)
# Procedure: Dosing was based on an equi-nicotine exposure paradigm. Cells were washed after 3 h treatment and re-plated in a 48-well plate at 1 million cells/well/mL with and without the presence of 10 μg/mL polyinosinic:polycytidylic acid (poly I:C) or lipopolysaccharide (LPS). After a 67 h incubation, supernatants were taken for secreted cytokine analysis. Cells were plated onto a 96-well plate at 1×10^6/mL and further incubated for 4 h with 200 μL of media with Golgiplug (1 μg/mL) (BD Biosciences, San Jose, Calif.) to measure intracellular cytokines. Cells were then harvested, washed and surface stained for CD56-PE and CD2-FITC, CD69-APC monoclonal antibodies (mAB) for 30 min at 4° C. After washing, cells were fixed and permeabilized with BD Biosciences Cytofix/Cytoperm buffer for 20 min on ice in the dark. Cells were then stained with anti-IFN-γ-PE, anti-TNF-α-APC and anti-perforin-FITC mAB and incubated for an additional 30 min on ice. After washing the cells, they were re-suspended in a total volume of 200 μL of 2% paraformaldehyde for FACS analysis. Forward scatter, side scatter, fluorescence intensity and percent positivity were measured after acquiring 100,000 cells per sample by flow cytometry (BD Biosciences, San Jose, Calif.), and the data were analyzed using Cell Quest (BD Biosciences, San Jose, Calif.) and Flow Jo (Tree Star, Ashland, Oreg.) software.
# It was sought to evaluate intracellular cytokine levels in T cells after treating with combustible and non-combustible TPPs. In a first set of experiments, measured was the induction of intracellular TNF-α and IFN-γ by flow cytometry after PBMCs were treated with TPPs and stimulated with either poly I:C or LPS.
# It was assessed whether the pretreatment of PBMCs with TPPs compromised their ability to produce TNF-α^+ cells when stimulated with poly I:C and LPS.
# Evaluated also were changes in the number of IFN-γ^+ T cells with TPP treatment followed by poly I:C and LPS stimulation.
# [4] = system: PBMCs; experiment: Secreted cytokines by CBA after 24 h LPS stimulation (modified protocol)
# Procedure: (§1) Previous methods utilized stimulation with TLR agonists (LPS is for […] and Poly I:C is for TLR3) for 67 h to measure intracellular cytokines and secreted cytokines.
# To measure immunomodulatory effects, PBMCs were stimulated with LPS for different time periods and the secreted cytokines were measured by cytometric bead array (CBA) method. To establish LPS stimulation time, PBMCs were exposed to LPS stimulation for 4 h, 24 h, 48 h and 72 h and secreted cytokines were measured.
# [5] = system: PBMCs; experiment: Intracellular cytokine-positive cells after 6 h LPS plus Golgiplug (modified protocol); details: total 6 h
# Procedure: as §1
# [6] = system: PBMCs; experiment: IL-8 secretion by ELISA after LPS stimulation; details: 2 mg/mL
# Procedure: Suppression of cytokines was also evident with nicotine. […] Next were measured IL-8 levels in the same samples as above using an ELISA assay.
# [7] = system: PBMCs; experiment: Cell death / viability of PBMCs by 7AAD staining (flow cytometry)
# Excerpt: Cell death measured by 7-Aminoactinomycin D (7AAD) staining method is simple and more reliable as 7AAD intercalates into double-stranded nucleic acids and can penetrate cell membranes of dying or dead cells.
# [8] = system: NK cells; experiment: CD69 expression in NK cells of TPP-treated PBMCs (flow cytometry); details: 1650 μg/mL
# Procedure: Cells were washed after 3 h treatment and re-plated in a 48-well plate at 1 million cells/well/mL with and without the presence of 10 μg/mL polyinosinic:polycytidylic acid (poly I:C) or lipopolysaccharide (LPS). After a 67 h incubation, supernatants were taken for secreted cytokine analysis. Cells were plated onto a 96-well plate at 1×10^6/mL and further incubated for 4 h with 200 μL of media with Golgiplug (1 μg/mL) (BD Biosciences, San Jose, Calif.) to measure intracellular cytokines. Cells were then harvested, washed and surface stained for CD56-PE and CD2-FITC, CD69-APC monoclonal antibodies (mAB) for 30 min at 4° C. After washing, cells were fixed and permeabilized with BD Biosciences Cytofix/Cytoperm buffer for 20 min on ice in the dark. […] Forward scatter, side scatter, fluorescence intensity and percent positivity were measured after acquiring 100,000 cells per sample by flow cytometry (BD Biosciences, San Jose, Calif.), and the data were analyzed using Cell Quest (BD Biosciences, San Jose, Calif.) and Flow Jo (Tree Star, Ashland, Oreg.) software.
# CD69 is an early inducible cell surface glycoprotein expressed during lymphoid activation and is involved in NK cell function. PBMCs were treated with TPPs, and CD69 expression on NK cell population was analyzed by flow cytometry after poly I:C and LPS stimulation.
# [9] = system: PBMCs; experiment: Cytolytic assay: killing of CFSE-labeled K562 target cells by TPP-treated PBMCs
# Procedure: The K562 cell line was used as a target in a cytolytic assay. K562 cells were purchased from ATCC (Manassas Va., USA) and grown in RPMI complete media. One vial of cryopreserved PBMCs was thawed and washed, and a live cell count was taken. Different concentrations of TPPs were prepared in 100 μL media. 1.5×10^6 PBMCs in a 50 μL volume were added to each well and incubated for 1.5 h at 37° C. in 96-well round bottom plates. K562 target cells were labeled with carboxy fluorescein succinimidyl ester (CFSE) and added at a density of 100,000 cells/well (target:effector ratio is 1:15). Cell co-cultures were incubated at 37° C. for an additional 4 h. Immediately after the incubation period, cells were stained with 7AAD (which labels the dead cells) and the killing of CFSE-labeled K562 target cells was evaluated after 7AAD staining by flow cytometric analysis (BD Biosciences, San Jose, Calif.). Flow data were analyzed using Flow Jo software (Tree Star, Ashland, Oreg.).
compound,measurement,setting,value
CN1CCCC1c1cccnc1 (centres unmarked) [nicotine],changes in perforin levels,[1],did not result in statistically significant changes
same,changes in TNF-α+ NK cells,"[2]; higher dose (1650 μg/mL), after LPS stimulation",statistically significant reduction
same,changes in TNF-α+ NK cells,[2]; lower doses (10 and 500 μg/mL),did not induce statistically significant changes
same,basal levels of TNF-α+ T cells,"[3]; 1650 μg/mL, basal (unstimulated)",higher basal levels
same,TNF-α+ T cell numbers,"[3]; 10-1650 μg/mL, poly I:C and LPS stimulation",did not yield statistically significant differences
same,IFN-γ+ T cells (cytokine-positive cells),"[3]; only at the highest concentrations, changes not statistically significant",Measurable suppression
same,secreted cytokines,"[4]; LPS stimulation, 24 h",dose-dependent decrease
same,secreted IL-6,"[4]; highest concentration (4 mg/mL) tested, LPS 24 h",suppressed
same,secreted IFN-γ,"[4]; range of concentrations up to 500 μg/mL of nicotine, LPS 24 h",significantly suppressed
same,"IFN-γ-positive cells, TNF-α-positive cells and MIP-1α-positive cells",[5],dose-dependent percent reduction
same,"IL-8 secretion, suppressive effects",[6],significant
same,cell death,"[7]; 3 h, 2000 μg/mL",8%
same,cell death,"[7]; 24 h, 3,000 μg/mL nicotine, comparable to near 80%",comparable degree of cell death
same,EC50,"[7]; Homo sapiens, PBMC, 7AAD positive staining of PBMCs, 24 h assay, neat nicotine, read-out: EC50 (concentration at which 50% of the cells were no longer viable)",1650 µg/mL
same,basal levels of the induction of CD69 relative to untreated cells,[8],did not increase
same,target cell killing ability,"[9]; K562 targets, target:effector 1:15",did not reduce
same,cell killing (K562 targets),[9]; low and high doses,did not interfere
